# Data from patent US20250361230A1, “LATS Inhibitors and Uses Thereof” (The USA, as Represented by the Secretary, Dept. of Heath …, priority 2022, published 2025).
# Where two headings read alike, the source gives them in different places.
# Experiments:
# Type in all cases: biochemical
# AKT = AKT (Homo sapiens, UniProt P31749); experiment: RBC HotSpot kinase assay (33P-ATP, P81 filter-binding), AKT; details: read-out: AKT IC50
# In short: (§1)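 IC50 in nM was derived from 10-point, single-replicate titrations. Read-out was radiometric P81 filter binding following a 2 h room-temperature reaction with 33P-ATP, after 20 min compound preincubation.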
# LATS2 = molecular target: T1, LATS2 (Homo sapiens, UniProt Q9NRM7); experiment: RBC HotSpot kinase assay (33P-ATP, P81 filter-binding), LATS2; details: read-out: LATS2 IC50
# T1 sequence (Q9NRM7 1-1088): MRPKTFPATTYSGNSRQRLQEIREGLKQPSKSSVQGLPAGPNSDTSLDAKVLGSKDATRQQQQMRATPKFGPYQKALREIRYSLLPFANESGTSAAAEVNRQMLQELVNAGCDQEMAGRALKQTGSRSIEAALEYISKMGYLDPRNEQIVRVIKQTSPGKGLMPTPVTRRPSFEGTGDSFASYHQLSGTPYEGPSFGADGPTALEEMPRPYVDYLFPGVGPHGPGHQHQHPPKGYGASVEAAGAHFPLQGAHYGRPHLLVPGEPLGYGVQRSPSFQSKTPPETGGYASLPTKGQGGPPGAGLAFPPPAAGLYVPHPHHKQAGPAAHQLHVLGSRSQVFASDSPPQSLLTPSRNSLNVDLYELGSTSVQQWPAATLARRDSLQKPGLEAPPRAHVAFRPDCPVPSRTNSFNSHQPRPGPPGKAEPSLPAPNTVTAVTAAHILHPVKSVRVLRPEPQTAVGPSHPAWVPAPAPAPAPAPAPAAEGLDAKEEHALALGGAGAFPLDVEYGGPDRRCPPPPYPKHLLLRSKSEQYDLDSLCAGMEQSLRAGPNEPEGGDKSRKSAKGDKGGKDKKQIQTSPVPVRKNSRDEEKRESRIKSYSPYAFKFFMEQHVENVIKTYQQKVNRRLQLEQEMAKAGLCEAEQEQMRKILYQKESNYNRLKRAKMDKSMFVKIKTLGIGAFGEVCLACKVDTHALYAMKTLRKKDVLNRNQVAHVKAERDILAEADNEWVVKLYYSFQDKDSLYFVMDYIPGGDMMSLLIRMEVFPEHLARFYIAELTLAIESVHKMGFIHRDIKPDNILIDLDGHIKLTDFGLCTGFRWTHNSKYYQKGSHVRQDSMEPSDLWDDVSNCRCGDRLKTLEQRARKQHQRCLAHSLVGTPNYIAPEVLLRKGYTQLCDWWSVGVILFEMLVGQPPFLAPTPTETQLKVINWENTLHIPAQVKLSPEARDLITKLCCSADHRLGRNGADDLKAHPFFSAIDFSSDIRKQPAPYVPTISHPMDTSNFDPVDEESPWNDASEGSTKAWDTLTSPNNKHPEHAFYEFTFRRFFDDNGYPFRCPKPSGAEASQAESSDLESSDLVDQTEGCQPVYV
# In short: as §1
# LATS1 = molecular target: T2, LATS1 (Homo sapiens, UniProt O95835); experiment: RBC HotSpot kinase assay (33P-ATP, P81 filter-binding), LATS1; details: read-out: LATS1 IC50
# T2 sequence (O95835 1-1130): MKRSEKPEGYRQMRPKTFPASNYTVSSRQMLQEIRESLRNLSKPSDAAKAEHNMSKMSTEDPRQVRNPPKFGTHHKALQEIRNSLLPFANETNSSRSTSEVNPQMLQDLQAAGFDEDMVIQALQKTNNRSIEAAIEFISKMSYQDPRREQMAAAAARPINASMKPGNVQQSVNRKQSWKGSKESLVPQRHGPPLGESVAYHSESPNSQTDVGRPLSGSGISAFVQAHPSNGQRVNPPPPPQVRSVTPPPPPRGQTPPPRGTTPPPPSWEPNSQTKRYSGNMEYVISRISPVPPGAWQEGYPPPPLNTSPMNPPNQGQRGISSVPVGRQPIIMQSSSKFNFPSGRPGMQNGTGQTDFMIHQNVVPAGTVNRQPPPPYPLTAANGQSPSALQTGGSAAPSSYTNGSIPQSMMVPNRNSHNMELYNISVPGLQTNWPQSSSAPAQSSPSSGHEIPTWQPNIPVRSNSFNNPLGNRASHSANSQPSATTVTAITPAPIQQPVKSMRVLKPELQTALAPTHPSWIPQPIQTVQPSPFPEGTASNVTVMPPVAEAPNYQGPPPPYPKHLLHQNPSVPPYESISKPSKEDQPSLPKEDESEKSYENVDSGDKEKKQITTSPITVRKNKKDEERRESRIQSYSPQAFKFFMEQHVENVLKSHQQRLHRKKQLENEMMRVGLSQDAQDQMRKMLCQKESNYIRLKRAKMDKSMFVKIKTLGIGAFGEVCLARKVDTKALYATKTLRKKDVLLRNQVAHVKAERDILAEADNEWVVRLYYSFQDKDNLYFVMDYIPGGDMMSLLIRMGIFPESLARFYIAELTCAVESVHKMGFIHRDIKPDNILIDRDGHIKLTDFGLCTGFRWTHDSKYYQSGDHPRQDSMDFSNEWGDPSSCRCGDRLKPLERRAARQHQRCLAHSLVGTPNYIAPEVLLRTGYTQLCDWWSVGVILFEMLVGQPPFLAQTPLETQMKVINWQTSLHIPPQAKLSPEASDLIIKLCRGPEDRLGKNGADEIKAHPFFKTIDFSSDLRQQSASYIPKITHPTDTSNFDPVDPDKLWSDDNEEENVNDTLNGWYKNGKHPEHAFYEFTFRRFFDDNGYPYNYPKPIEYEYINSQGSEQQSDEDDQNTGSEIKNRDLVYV
# In short: as §1
# [1] = Table 32, biochemical kinase assay
# [2] = Table 28, biochemical kinase assay
# AKT, sequence (P31749 whole entry): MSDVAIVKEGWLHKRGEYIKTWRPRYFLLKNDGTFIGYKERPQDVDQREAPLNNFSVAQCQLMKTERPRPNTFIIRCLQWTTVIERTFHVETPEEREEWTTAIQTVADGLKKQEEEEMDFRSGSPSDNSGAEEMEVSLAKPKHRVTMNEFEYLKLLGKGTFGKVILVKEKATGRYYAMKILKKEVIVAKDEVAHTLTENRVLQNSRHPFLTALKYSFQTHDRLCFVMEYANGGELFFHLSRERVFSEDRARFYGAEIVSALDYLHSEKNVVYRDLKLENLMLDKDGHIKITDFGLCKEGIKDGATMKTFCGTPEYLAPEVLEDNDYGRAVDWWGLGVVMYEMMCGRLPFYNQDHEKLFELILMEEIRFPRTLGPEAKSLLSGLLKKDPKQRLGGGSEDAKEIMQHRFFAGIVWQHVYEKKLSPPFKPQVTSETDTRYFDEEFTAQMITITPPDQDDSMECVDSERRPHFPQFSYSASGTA
IC50 (AKT; [1]) [nM],IC50 (LATS2; [1]) [nM],IC50 (LATS1; [1]) [nM],IC50 (AKT; [2]) [nM],IC50 (LATS2; [2]) [nM],IC50 (LATS1; [2]) [nM],SMILES
5.9,3.7,4,,,,"O=C(CO)NCC(O)(c1ccc(Cl)cc1)c1ccc(-c2ccnc3[nH]ccc23)cc1 (stereo not drawn) [Compound 1015, N-(2-(4-(1H-pyrrolo[2,3-b]pyridin-4-yl)phenyl)-2-(4-chlorophenyl)-2-hydroxyethyl)-2-hydroxyacetamide]"
,,,282,1.6,3.2,"COC(=O)c1c[nH]c2nccc(-c3ccc([C@@]4(O)[C@H](C)CNC[C@@H]4C)c(C)c3)c12 [Compound 300, methyl 4-(4-((3S,4s,5R)-4-hydroxy-3,5-dimethylpiperidin-4-yl)-3-methylphenyl)-1H-pyrrolo[2,3-b]pyridine-3-carboxylate]"
,,,789,36,40,"CCOc1cc(-c2ccnc3[nH]ccc23)ccc1CN [Compound 269, (2-ethoxy-4-(1H-pyrrolo[2,3-b]pyridin-4-yl)phenyl) methanamine]"
< 0.5,< 0.5,0.5,,,,"NCC(O)(c1ccc(Cl)cc1)c1ccc(-c2ccnc3[nH]cc(Cl)c23)nc1 (stereo not drawn) [Compound 1010, 2-amino-1-(6-(3-chloro-1H-pyrrolo[2,3-b]pyridin-4-yl)pyridin-3-yl)-1-(4-chlorophenyl)ethan-1-ol]"
,,,18,14,11,"Fc1c[nH]c2nccc(-c3ccc(C4(C(F)(F)F)CCNCC4)cc3)c12 [Compound 189, 3-fluoro-4-(4-(4-(trifluoromethyl)piperidin-4-yl)phenyl)-1H-pyrrolo[2,3-b]pyridine]"
,,,1250,146,43,"CN(C)C(C)(C)c1ccc(-c2ccnc3[nH]ccc23)cc1 [Compound 209, 2-(4-(1H-pyrrolo[2,3-b]pyridin-4-yl)phenyl)-N,N-dimethylpropan-2-amine]"
,,,1410,11,21,"NCc1ccc(-c2ccnc3[nH]cc(-c4cccc(F)c4)c23)cc1 [Compound 247, (4-(3-(3-fluorophenyl)-1H-pyrrolo[2,3-b]pyridin-4-yl)phenyl) methanamine]"

# Continued, compound first:
SMILES,IC50 (AKT; [1]) [nM],IC50 (LATS2; [1]) [nM],IC50 (LATS1; [1]) [nM],IC50 (AKT; [2]) [nM],IC50 (LATS2; [2]) [nM],IC50 (LATS1; [2]) [nM]
"Cc1cc(-c2ccnc3[nH]cc(Cl)c23)cc(F)c1[C@@]1(O)[C@H](C)CNC[C@@H]1C [Compound 303, (3S,4s,5R)-4-(4-(3-chloro-1H-pyrrolo[2,3-b]pyridin-4-yl)-2-fluoro-6-methylphenyl)-3,5-dimethylpiperidin-4-ol]",,,,246,3.3,4.8
"C[C@@H]1CN(C)C[C@H](C)[C@@]1(O)c1ccc(-c2ccnc3[nH]cc(F)c23)cc1Cl [Compound 5, (3S,4s,5R)-4-(2-chloro-4-(3-fluoro-1H-pyrrolo[2,3-b]pyridin-4-yl)phenyl)-1,3,5-trimethylpiperidin-4-ol]",,,,67,12.5,9.2
"C[C@@H]1CN(C(=O)C2CC(C)(C)C2)C[C@H](C)C1(O)c1c(F)cc(-c2ccnc3[nH]cc(F)c23)cc1F (stereo partly drawn) [Compound 72, ((3S,5R)-4-(2,6-difluoro-4-(3-fluoro-1H-pyrrolo[2,3-b]pyridin-4-yl)phenyl)-4-hydroxy-3,5-dimethylpiperidin-1-yl)(3,3-dimethylcyclobutyl) methanone]",,,,> 10000,60,27.4
"C[C@@H]1CN(C2CCC2)C[C@H](C)[C@@]1(O)c1ccc(-c2ccnc3[nH]cc(F)c23)cc1Cl [Compound 20, (3S,4s,5R)-4-(2-chloro-4-(3-fluoro-1H-pyrrolo[2,3-b]pyridin-4-yl)phenyl)-1-cyclobutyl-3,5-dimethylpiperidin-4-ol]",,,,195,2.7,2.6
"O=C(C1CC1)N1CCC(c2ccc(-c3ccnc4[nH]cc(F)c34)cc2Cl)CC1 [Compound 160, (4-(2-chloro-4-(3-fluoro-1H-pyrrolo[2,3-b]pyridin-4-yl)phenyl)piperidin-1-yl)(cyclopropyl)methanone]",,,,> 10000,442,451
"C[C@@H]1CN(Cc2ccncc2)C[C@H](C)[C@@]1(O)c1c(F)cc(-c2ccnc3[nH]cc(F)c23)cc1F [Compound 19, (3S,4s,5R)-4-(2,6-difluoro-4-(3-fluoro-1H-pyrrolo[2,3-b]pyridin-4-yl)phenyl)-3,5-dimethyl-1-(pyridin-4-ylmethyl)piperidin-4-ol]",,,,1020,9.2,11
"C[C@@H]1CN(C2CC3(CNC3)C2)C[C@H](C)[C@@]1(O)c1c(F)cc(-c2ccnc3[nH]cc(F)c23)cc1F [Compound 89, (3R,4s,5S)-4-(2,6-difluoro-4-(3-fluoro-1H-pyrrolo[2,3-b]pyridin-4-yl)phenyl)-3,5-dimethyl-1-(2-azaspiro[3.3]heptan-6-yl)piperidin-4-ol]",,,,68,3.8,3.7
"Cc1cc(-c2ccnc3[nH]cc(F)c23)cc(F)c1C1(O)[C@H](C)CN(C(=O)C2CC(F)(F)C2)C[C@@H]1C (stereo partly drawn) [Compound 73, (3,3-difluorocyclobutyl) ((3S,5R)-4-(2-fluoro-4-(3-fluoro-1H-pyrrolo[2,3-b]pyridin-4-yl)-6-methylphenyl)-4-hydroxy-3,5-dimethylpiperidin-1-yl)methanone]",,,,6470,32.7,14.7
"Cc1cc(-c2ccnc3[nH]cc(F)c23)ccc1[C@@]1(O)[C@H](C)CN(C2CCOCC2)C[C@@H]1C [Compound 27, (3S,4s,5R)-4-(4-(3-fluoro-1H-pyrrolo[2,3-b]pyridin-4-yl)-2-methylphenyl)-3,5-dimethyl-1-(tetrahydro-2H-pyran-4-yl)piperidin-4-ol]",,,,47.9,2.2,1.7
"CC(C)N1C[C@@H](C)[C@](O)(c2ccc(-c3ccnc4[nH]cc(F)c34)cc2Cl)[C@@H](C)C1 [Compound 6, (3S,4s,5R)-4-(2-chloro-4-(3-fluoro-1H-pyrrolo[2,3-b]pyridin-4-yl)phenyl)-1-isopropyl-3,5-dimethylpiperidin-4-ol]",,,,90.9,1.4,1.3
"Cc1nc(-c2ccnc3[nH]cc(F)c23)ccc1C1(O)CC2(CNC2)C1 [Compound 107, 6-(6-(3-fluoro-1H-pyrrolo[2,3-b]pyridin-4-yl)-2-methylpyridin-3-yl)-2-azaspiro[3.3]heptan-6-ol]",,,,> 10000,661,473
